Laboratory results: article PMC10932281, “A Combination of β-Aescin and Newly Synthesized Alkylamidobetaines as Modern Components Eradicating the Biofilms of Multidrug-Resistant Clinical Strains of Candida glabrata” (International Journal of Molecular Sciences, 2024)
≈ marks a conversion by molar mass, not a printed value. Where two headings read alike, the source gives them in different places.

Key:
[1] = system: C. glabrata 2853 clinical strain; assay: MIC90/MFC, EUCAST broth microdilution; format: cell-based, Candida glabrata
Krafft temperature (TK) = format: physicochemical
Protocol: CHNS elemental analysis was carried out by a Vario EL cube (Elementar, Germany) calibrated on acetanilide. Electrospray ionization mass spectroscopy (ESI-MS) (micrOTOF-Q instrument; Bruker Daltonics, Germany) allowed for the MS spectra to be obtained. The ESI-MS instrument was operated in the positive ion mode and calibrated with the Tunemix^TM mixture (Bruker Daltonics, Germany). The mass accuracy was better than 5 ppm. The obtained mass spectra were analyzed using DataAnalysis 3.4 software (Bruker Daltonics, Germany). ^1H NMR spectra were recorded on a Bruker AMX-500 spectrometer, using CDCl3 as a solvent. ^1H chemical shifts (in ppm) were calibrated to TMS as an internal reference. Melting points were determined using a Boetius melting point apparatus, while Krafft temperatures were determined according to the directions given in [47]. CMC is the minimum concentration above which micelles are formed in aqueous liquid. To obtain the CMC values, we used McGowan’s model. […] Molecular characteristic volumes (Vx) are found by the addition of the atomic characteristic volumes and the subtraction for the same factory (6.56 × 10^−6 m^3 mol^−1) for every covalent bond.

C. glabrata 2853 biofilm = assay: Biofilm eradication on polystyrene, fluorescence microscopy (Syto9/PI); format: cell-based, Candida glabrata; settings: Nakaseomyces glabratus, 2853BIOFILM, 72 h, read-out: Biofilm Viability [%] 2853 Live; for viability at 1 µM: AAB alone 1 μM; for viability at 2 µM: AAB alone 2 μM; for viability at 3 µM: AAB alone 3 μM
Protocol: (§1) C. glabrata biofilm eradication on polystyrene surfaces was assessed according to the following procedure: 1 mL of C. glabrata culture, 10^6 CFU/mL in RMPI 1640 MOPS-buffered medium, was pipetted into the wells of a 48-well adherent plate. Cultures were incubated at 37 °C for 72 h with shaking (400 RPM). […] Non-treated cells were used as the control. This experiment was carried out in triplicate. The analysis of the biofilm eradication of C. glabrata strains on polystyrene surfaces was performed using fluorescence microscopy (FM). For further information, see Section 4.12. below.
(§2) The 72 h biofilm of C. glabrata strains on polystyrene surfaces was stained on 48-well adherent plates with 1 µL of propidium iodide (Ex λ = 543 nm/Em λ = 617 nm) and 1 µL of SYTO9 (Ex λ = 488 nm/Em λ = 503 nm) for 30 min using a LIVE/DEAD BacLight Bacterial Viability Kit (Thermo Fisher Scientific, Waltham, MA USA). Imaging was performed using a fluorescence microscope (FM) BX51 (Olympus, Tokyo, Japan) equipped with an Orca Flash 40 camera (Hamamatsu, Hamamatsu City, Japan) and 10× objective Plan APO. Scale bar = 100 µm. Detailed computer qualitative and quantitative analyses of the obtained pictures were performed by estimating the coverage area on the polystyrene plate (the percentage of the area occupied by the fungal biofilm). The cell viability analysis was performed by calculating the fluorescence intensity of the dyes (Syto9/PI) used. The acquired images were processed and analyzed using Fiji/ImageJ software ver. 1.53c (NIH, Bethesda, MD, USA). First, maximum intensity projections (MIPs) were obtained from stacks of images. The areas of the binary images were transferred into the original live and dead channel MIP images. The mean fluorescence intensities of all detected objects per field of view were calculated using ImageJ’s Analyze Threshold function (Software: ImageJ version 1.53 from Softonic).

C. glabrata 2586 biofilm = assay: as above; format: cell-based, Candida glabrata; settings: Nakaseomyces glabratus, 2586BIOFILM, 72 h, read-out: Biofilm Viability [%] 2586 Live; for viability at 1 µM: AAB alone 1 μM; for viability at 2 µM: AAB alone 2 μM; for viability at 3 µM: AAB alone 3 μM
Protocol: as §1, §2

[2] = system: C. glabrata ATCC 90030 biofilm; assay: as above; format: cell-based, Candida glabrata; settings: Nakaseomyces glabratus, ATCC90030, 72 h, read-out: Biofilm Viability [%] 90030 Live; for viability at 1 µM: AAB alone 1 μM; for viability at 2 µM: AAB alone 2 μM; for viability at 3 µM: AAB alone 3 μM
Protocol: as §1, §2

[3] = system: C. glabrata 2586 clinical strain; assay: MIC90/MFC, EUCAST broth microdilution; format: cell-based, Candida glabrata
C. glabrata ATCC 90030 [4] = assay: MIC90/MFC, EUCAST broth microdilution; format: cell-based, Candida glabrata; settings: ATCC 90030
[5] = system: C. glabrata strains (ATCC 90030, 2586, 2853); assay: MIC, statements for all tested strains together; format: cell-based, Candida glabrata; settings: all the tested C. glabrata strains, AAB alone
[6] = system: Balb/3T3 mouse embryonic fibroblasts; assay: Cell proliferation assay (MTT test); format: cell-based; settings: 24 h
Protocol: Balb/3T3 (ATCC CCL-163) mouse embryonic fibroblasts were cultured in DMEM medium supplemented with 10% fetal bovine serum, 1 mM L-glutamine, and a 1% penicillin/streptomycin solution and were used for our cytotoxicity studies. The cells were cultured at 37 °C and 5% CO2 until the cell density of 10^6 mL^−1 was obtained. Such cells were then seeded in 24-well tissue microplates (2 × 10^4 cells per well) and allowed to adhere overnight under the abovementioned conditions. Cytotoxicity tests were carried out on the cells prepared in this way.
The newly synthesized AABs (C9, C11, C13, and C15) were selected based on previous studies. They were analyzed at the concentrations of 0.25, 0.5, 1, 2, and 3 µM. […] The BALB-3T3 cells were treated with the prepared mixtures, dissolved in a complete cell culture medium, and then incubated for 24 h under the abovementioned conditions. Three independent replicates were performed for each combination of compounds.
The cytotoxic effect of the tested compounds in combination with β-AE was evaluated by measuring mitochondrial dehydrogenase activity using the MTT assay. After a 24 h incubation period, the medium supplemented with the 1mM MTT solution was added to each well. The cultures were continued for another 4 h under the conditions enriched with 5% CO2. After this time, the supernatant was collected, and MTT formazan was extracted from the cells using DMSO. The reaction was then stopped with Sörensen buffer (0.1 mol/L glycine; 0.1 mol/L NaCl; and pH 10.5). The percentage of cytotoxicity was calculated by comparing the absorbance values (λ = 560 nm) of the test sample to the control sample, which was untreated fibroblast cells. In the test performed, the negative control (C−) (sample not treated; PBS added) and positive control (C+) were fibroblast cells treated with 1% SDS [60].

C. glabrata 2586 [7] = assay: Interaction of AABs (3 µM) with antifungal agents, modified checkerboard; format: cell-based, Candida glabrata
[8] = system: biofilms of C. glabrata DSM 1226 and two clinical isolates; parameters: method as in PMID 37508306; settings: combination with β-AE; biofilms of three strains; ref [12]; cited from earlier work
C. glabrata ATCC 90030 [9] = assay: FICI checkerboard, β-aescin with antifungal drugs; format: cell-based, Candida glabrata
C. glabrata 2853 [10] = assay: FICI checkerboard, β-aescin with antifungal drugs; format: cell-based, Candida glabrata
C. glabrata ATCC 90030 [11] = assay: Interaction of AABs (3 µM) with antifungal agents, modified checkerboard; format: cell-based, Candida glabrata
C. glabrata 2586 [12] = assay: FICI checkerboard, β-aescin with antifungal drugs; format: cell-based, Candida glabrata; settings: combination with β-aescin
C. glabrata 2853 [13] = assay: Interaction of AABs (3 µM) with antifungal agents, modified checkerboard; format: cell-based, Candida glabrata; settings: for Multiplicity factor (MF) with C9: C9 3 µM
[14] = Nakaseomyces glabratus, ATCC90030, read-out: MIC converted to
[15] = Nakaseomyces glabratus, read-out: MFC
[16] = Nakaseomyces glabratus, read-out: MIC90
[17] = C11 at constant 3 µM, dilutions in µg/mL
[18] = C13 at constant 3 µM, dilutions in µg/mL
[19] = C15 at constant 3 µM, dilutions in µg/mL
[20] = C9 at constant 3 µM, dilutions in µg/mL

CCCCCCCCCCCC(=O)N(C)CCC[N+](C)(C)CC(=O)[O-] [C11]
MIC90 ([1]; AAB alone): >3 µM/mL | TK (Krafft temperature) (Krafft temperature (TK)): ~5 °C | viability at 1 µM (C. glabrata 2853 biofilm): 37.2% | viability at 2 µM (C. glabrata 2853 biofilm): 3.06% | viability at 3 µM (C. glabrata 2853 biofilm): 7.34% | viability at 1 µM (C. glabrata 2586 biofilm): 4.54% | viability at 2 µM (C. glabrata 2586 biofilm): 4.45% | viability at 3 µM (C. glabrata 2586 biofilm): 3.49% | viability at 1 µM [2]: 32.6% | viability at 2 µM [2]: 3.96% | viability at 3 µM [2]: 2.14% | MIC90 ([3]; AAB alone): >3 µM/mL | MIC90 (C. glabrata ATCC 90030 [4]; AAB alone): >3 µM/mL | MIC [5, 14]: 1070 µg/mL (≈ 3 mM) | MIC [5]: 3 µM/mL | Cytotoxicity level ([6]; 1 µm/mL): 85%

CCCCCCCCCCCCCC(=O)N(C)CCC[N+](C)(C)CC(=O)[O-] [C13]
MIC90 ([1]; AAB alone): >3 µM/mL | TK (Krafft temperature) (Krafft temperature (TK)): 20.5 °C | viability at 1 µM (C. glabrata 2853 biofilm): 11.6% | viability at 2 µM (C. glabrata 2853 biofilm): 4.98% | viability at 3 µM (C. glabrata 2853 biofilm): 14.2% | viability at 1 µM (C. glabrata 2586 biofilm): 4.56% | viability at 2 µM (C. glabrata 2586 biofilm): 4.57% | viability at 3 µM (C. glabrata 2586 biofilm): 12.9% | viability at 1 µM [2]: 1.96% | viability at 2 µM [2]: 6.55% | viability at 3 µM [2]: 2.26% | MIC90 ([3]; AAB alone): >3 µM/mL | MIC90 (C. glabrata ATCC 90030 [4]; AAB alone): >3 µM/mL | MIC [5, 14]: 1150 µg/mL (≈ 3 mM) | MIC [5]: 3 µM/mL | Cytotoxicity level ([6]; 2 µM/mL): 85%

CCCCCCCCCCCCCCCC(=O)N(C)CCC[N+](C)(C)CC(=O)[O-] [C15]
MIC90 ([1]; AAB alone): >3 µM/mL | TK (Krafft temperature) (Krafft temperature (TK)): 36.4 °C | viability at 1 µM (C. glabrata 2853 biofilm): 63% | viability at 2 µM (C. glabrata 2853 biofilm): 17% | viability at 3 µM (C. glabrata 2853 biofilm): 6.64% | viability at 1 µM (C. glabrata 2586 biofilm): 6.07% | viability at 2 µM (C. glabrata 2586 biofilm): 2.33% | viability at 3 µM (C. glabrata 2586 biofilm): 6.23% | viability at 1 µM [2]: 41.9% | viability at 2 µM [2]: 28.8% | viability at 3 µM [2]: 41.4% | MIC90 ([3]; AAB alone): >3 µM/mL | MIC90 (C. glabrata ATCC 90030 [4]; AAB alone): >3 µM/mL | MIC [5, 14]: 1240 µg/mL (≈ 3 mM) | MIC [5]: 3 µM/mL | Decrease of viability ([6]; 0.25 µm/mL): 15% | Decrease of viability ([6]; 0.5 µm/mL): 28%

OC(Cn1cncn1)(Cn1cncn1)c1ccc(F)cc1F [Fluconazole]
MFC [1, 15]: 2050 µg/mL (≈ 6.69 mM) | MIC90 [1, 16]: 32 µg/mL (≈ 0.104 mM) | Multiplicity factor (MF) with C9 (C. glabrata 2586 [7]; C9 3 µM): 8 | Multiplicity factor (MF) with C11 (C. glabrata 2586 [7]; C11 3 µM): 64 | MIC90 of antimycotic combined with C11 (C. glabrata 2586 [7]; [17]): 32 | Multiplicity factor (MF) with C13 (C. glabrata 2586 [7]; C13 3 µM): 64 | MIC90 of antimycotic combined with C13 (C. glabrata 2586 [7]; [18]): 32 | Multiplicity factor (MF) with C15 (C. glabrata 2586 [7]; C15 3 µM): 64 | MIC90 of antimycotic combined with C15 (C. glabrata 2586 [7]; [19]): 32 | FICI [8]: ≤ 0.5 | MFC [3, 15]: 2050 µg/mL (≈ 6.69 mM) | MIC90 [3, 16]: 2050 µg/mL (≈ 6.69 mM) | MFC (C. glabrata ATCC 90030 [4]; Nakaseomyces glabratus, ATCC90030, read-out: MFC): 2050 µg/mL (≈ 6.69 mM) | MIC90 (C. glabrata ATCC 90030 [4]; Nakaseomyces glabratus, ATCC90030, read-out: MIC90): 2050 µg/mL (≈ 6.69 mM) | Type of interaction with β-AE (by FICI) (C. glabrata ATCC 90030 [9]): synergistic | FICI (C. glabrata ATCC 90030 [9]; combination with β-aescin): 0.25 | Type of interaction with β-AE (by FICI) (C. glabrata 2853 [10]): additive | FICI (C. glabrata 2853 [10]; combination with β-aescin): 0.75 | Multiplicity factor (MF) with C9 (C. glabrata ATCC 90030 [11]; C9 3 µM, |MF| = MIC90 alone/MIC90 with AAB): 16 | MIC90 of antimycotic combined with C9 (C. glabrata ATCC 90030 [11]; [20]): 128 | Multiplicity factor (MF) with C11 (C. glabrata ATCC 90030 [11]; C11 3 µM): 64 | MIC90 of antimycotic combined with C11 (C. glabrata ATCC 90030 [11]; [17]): 32 | Multiplicity factor (MF) with C13 (C. glabrata ATCC 90030 [11]; C13 3 µM): 64 | MIC90 of antimycotic combined with C13 (C. glabrata ATCC 90030 [11]; [18]): 32 | Multiplicity factor (MF) with C15 (C. glabrata ATCC 90030 [11]; C15 3 µM): 64 | MIC90 of antimycotic combined with C15 (C. glabrata ATCC 90030 [11]; [19]): 32 | FICI (C. glabrata 2586 [12]): 1.25 | Multiplicity factor (MF) with C9 (C. glabrata 2853 [13]): 1 | Multiplicity factor (MF) with C9 (C. glabrata 2853 [13]; listed as fluconazole): did not interact | MIC90 of antimycotic combined with C9 (C. glabrata 2853 [13]; [20]): 32 | Multiplicity factor (MF) with C11 (C. glabrata 2853 [13]; C11 3 µM): 2 | MIC90 of antimycotic combined with C11 (C. glabrata 2853 [13]; [17]): 16 | Multiplicity factor (MF) with C13 (C. glabrata 2853 [13]; C13 3 µM): 2 | MIC90 of antimycotic combined with C13 (C. glabrata 2853 [13]; [18]): 16 | Multiplicity factor (MF) with C15 (C. glabrata 2853 [13]; C15 3 µM): 16 | MIC90 of antimycotic combined with C15 (C. glabrata 2853 [13]; [19]): 2
